Measurements: PubChem BioAssay (NCI)
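Dose response: 5 concentrations. Exposure: 48 h. Format: 96-well plates. Endpoint: linear interpolation; highest concentration if not reached. GI50: concentration for 50% inhibition of growth. TGI marks complete inhibition of growth.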

Legend:
Test in all cases: growth of human tumour cells (NCI), 48 h
786-0 renal = tested on: 786-0 renal
BT-549 breast = tested on: BT-549 breast
IGROV1 ovarian = tested on: IGROV1 ovarian
MALME-3M melanoma = tested on: MALME-3M melanoma
NCI-H460 lung = tested on: NCI-H460 lung
NCI/ADR-RES ovarian = tested on: NCI/ADR-RES ovarian
SF-268 CNS = tested on: SF-268 CNS
SN12C renal = tested on: SN12C renal
UO-31 renal = tested on: UO-31 renal
NCI-H522 lung = tested on: NCI-H522 lung

SMILES	GI50 (786-0 renal) [µM]	TGI (786-0 renal) [µM]	GI50 (BT-549 breast) [µM]	TGI (BT-549 breast) [µM]	GI50 (IGROV1 ovarian) [µM]	TGI (IGROV1 ovarian) [µM]	GI50 (MALME-3M melanoma) [µM]	TGI (MALME-3M melanoma) [µM]	GI50 (NCI-H460 lung) [µM]	TGI (NCI-H460 lung) [µM]	GI50 (NCI/ADR-RES ovarian) [µM]	TGI (NCI/ADR-RES ovarian) [µM]	GI50 (SF-268 CNS) [µM]	TGI (SF-268 CNS) [µM]	GI50 (SN12C renal) [µM]	TGI (SN12C renal) [µM]	GI50 (UO-31 renal) [µM]	TGI (UO-31 renal) [µM]	GI50 (NCI-H522 lung) [µM]	TGI (NCI-H522 lung) [µM]
O=[N+]([O-])c1ccc(Sc2nc(Cl)nc(NC3CCCC3)n2)cc1	> 10	> 10	> 10	> 10	2.84	> 10	> 10	> 10	> 10	> 10	> 10	> 10	> 10	> 10	> 10	> 10	3.08	> 10	–	–
Cc1ccc(/C=C/C(=N/N=C(N)N)c2ccccc2)cc1	2.41	6.53	–	–	6.36	23.1	3.8	20.2	3.1	10.1	3.14	12	4.13	16.3	4.5	16.9	3.75	17.2	1.8	5.12
NC1=NN(c2ccccc2)C(=O)C1/C(=N\NC(=O)c1cc2ccccc2cc1O)C(=O)Nc1cccc(C(F)(F)F)c1 (stereo unspecified)	–	> 100	–	–	–	> 100	–	> 100	–	> 100	–	–	–	> 100	–	> 100	–	> 100	–	–
Cn1c(=O)c2ccc(-c3ccc(Br)cc3)nc2n(C)c1=O	–	> 100	–	–	–	> 100	–	> 100	–	> 100	–	–	–	> 100	–	–	–	> 100	–	> 100
N#Cc1cc([N+](=O)[O-])ccc1NC(=O)C(F)(F)F	–	> 89.5	–	–	–	> 100	–	> 100	–	> 57.4	–	–	–	> 100	–	> 100	–	> 100	–	> 100
COC(=O)C[CH2][Ge]([CH3])([CH3])[S]c1ccccc1	21.6	45	–	–	1.25	4.72	> 100	> 100	16.9	30.6	–	–	18.2	43.7	18.3	37.2	15.6	33.1	10.8	23.2
NCCCn1c2c(c3ccc([N+](=O)[O-])cc3c1=O)C(=O)c1cc(-c3ccccc3)ccc1-2	0.181	0.334	2.09	3.77	–	–	–	–	0.34	1.38	1.84	3.76	–	–	0.824	2.34	1.73	3.41	0.22	0.467
CSc1nc2c(nc(N)n2C2OC(COC(C)=O)C(OC(C)=O)C(OC(C)=O)C2OC(C)=O)c(=O)n1C (stereo unspecified)	–	> 100	–	–	–	> 100	–	> 100	–	> 100	–	–	–	–	–	> 100	–	> 100	–	–
CC(=O)[CH-]C(=O)c1ccccc1.CC(=O)[CH-]C(=O)c1ccccc1.CC1(C)OCC(C2OC3OC(C)(C)OC3C2[O-])O1.CC1(C)OCC(C2OC3OC(C)(C)OC3C2[O-])O1.[Ti+4] (stereo unspecified)	11.8	27.3	–	–	21.6	48.8	10.5	28.5	11.3	28.4	–	–	11.6	30	17.7	43.4	–	–	–	–
